Tested on: SU-DHL-4 cell line
Test: SU-DHL-4 cell proliferation assay (Cell Titer-Glo viability)
Format: cell-based
Details: Homo sapiens; cell viability IC50 activity level, DLBCL cell line SU-DHL-4, 120 hours post-treatment; read-out: SU-DHL-4 Act
Procedure, shortened: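 SU-DHL-4 cells (500/well, RPMI-1640 + 10% FBS) exposed to 20-point compound dilutions (0.5 nM–10 μM, 0.1% DMSO) for 120 h at 37°C, 5% CO2. Viability measured by Cell Titer-Glo luminescence at t0 and at 120 h. IC50 is the concentration giving 50% of DMSO control, from a four-parameter logistic fit.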

Row | Compound | IC50
1 | O=C1CCC(N2C(=O)c3cccc(NCc4ccc(CN5CC(N6CCCC6=O)C5)cc4F)c3C2=O)C(=O)N1 (stereo not shown) [Cpd 169, 2-(2,6-dioxopiperidin-3-yl)-4-(2-fluoro-4-((3-(2-oxopyrrolidin-1-yl)azetidin-1-yl)methyl)benzylamino)isoindoline-1,3-dione] | < 200 nM
2 | O=C1CCC(N2C(=O)c3cccc(NCc4ccc(CN5CC6(CCCC6)C5)cc4)c3C2=O)C(=O)N1 (stereo not shown) [Cpd 39, 4-(4-(2-azaspiro[3.4]octan-2-ylmethyl)benzylamino)-2-(2,6-dioxopiperidin-3-yl)isoindoline-1,3-dione] | < 200 nM
3 | O=C1CCC(N2C(=O)c3cccc(NCc4ccc(CN5Cc6cccc(C(F)(F)F)c6C5)cc4)c3C2=O)C(=O)N1 (stereo not shown) [Cpd 164, 2-(2,6-dioxopiperidin-3-yl)-4-(4-((4-(trifluoromethyl)isoindolin-2-yl)methyl)benzylamino)isoindoline-1,3-dione] | 200 to 500 nM
4 | O=C1CCC(N2C(=O)c3cccc(NCc4ccc(CN5CCC6(CCC6)CC5)cc4)c3C2=O)C(=O)N1 (stereo not shown) [Cpd 23, 4-(4-(7-azaspiro[3.5]nonan-7-ylmethyl)benzylamino)-2-(2,6-dioxopiperidin-3-yl)isoindoline-1,3-dione] | < 200 nM
5 | CCc1nsc(N2CCN(Cc3ccc(CNc4cccc5c4C(=O)N(C4CCC(=O)NC4=O)C5=O)cc3)CC2)n1 (stereo not shown) [Cpd 197, 2-(2,6-dioxopiperidin-3-yl)-4-(4-((4-(3-ethyl-1,2,4-thiadiazol-5-yl)piperazin-1-yl)methyl)benzylamino)isoindoline-1,3-dione] | < 200 nM
6 | Cc1cc(CNc2cccc3c2C(=O)N(C2CCC(=O)NC2=O)C3=O)ccc1CN1CCC(C2CCOCC2)CC1 (stereo not shown) [Cpd 214, 2-(2,6-dioxopiperidin-3-yl)-4-(3-methyl-4-((4-(tetrahydro-2H-pyran-4-yl)piperidin-1-yl)methyl)benzylamino)isoindoline-1,3-dione] | < 200 nM
7 | O=C1CCC(N2C(=O)c3cccc(NCc4ccc(CN5CCC(c6ccccn6)CC5)cc4F)c3C2=O)C(=O)N1 (stereo not shown) [Cpd 166] | < 200 nM
8 | Cc1cc(CNc2cccc3c2C(=O)N(C2CCC(=O)NC2=O)C3=O)ccc1CN1CCN(C2CCC2)CC1 (stereo not shown) [Cpd 70, 4-(4-((4-cyclobutylpiperazin-1-yl)methyl)-3-methylbenzylamino)-2-(2,6-dioxopiperidin-3-yl)isoindoline-1,3-dione] | < 200 nM
9 | N#Cc1cccc(C2CN(Cc3ccc(CNc4cccc5c4C(=O)N(C4CCC(=O)NC4=O)C5=O)cc3)C2)c1 (stereo not shown) [Cpd 15, 3-(1-(4-((2-(2,6-dioxopiperidin-3-yl)-1,3-dioxoisoindolin-4-ylamino)methyl)benzyl)azetidin-3-yl)benzonitrile] | 751 to 1000 nM
10 | N#Cc1cc(F)c(N2CCN(Cc3ccc(CNc4cccc5c4C(=O)N(C4CCC(=O)NC4=O)C5=O)cc3)CC2)c(Cl)c1 (stereo not shown) [Cpd 11, 3-chloro-4-(4-(4-((2-(2,6-dioxopiperidin-3-yl)-1,3-dioxoisoindolin-4-ylamino)methyl)benzyl)piperazin-1-yl)-5-fluorobenzonitrile] | 501 to 750 nM
11 | NC(=O)c1ccc(N2CCN(Cc3ccc(CNc4cccc5c4C(=O)N(C4CCC(=O)NC4=O)C5=O)cc3)CC2)nc1 (stereo not shown) [Cpd 54, 6-(4-(4-((2-(2,6-dioxopiperidin-3-yl)-1,3-dioxoisoindolin-4-ylamino)methyl)benzyl)piperazin-1-yl)nicotinamide] | 200 to 500 nM
12 | Cc1cc(CNc2cccc3c2C(=O)N(C2CCC(=O)NC2=O)C3=O)ccc1CN1CCC(OC(C)C)CC1 (stereo not shown) [Cpd 78, 2-(2,6-dioxopiperidin-3-yl)-4-(4-((4-isopropoxypiperidin-1-yl)methyl)-3-methylbenzylamino)isoindoline-1,3-dione] | < 200 nM
13 | O=C1CCC(N2C(=O)c3cccc(NCc4ccc(CN5CC6(CCC6)C5)cc4)c3C2=O)C(=O)N1 (stereo not shown) [Cpd 115, 4-(4-(2-azaspiro[3.3]heptan-2-ylmethyl)benzylamino)-2-(2,6-dioxopiperidin-3-yl)isoindoline-1,3-dione] | < 200 nM

Source: US11358952B2, “Substituted 4-aminoisoindoline-1,3-dione compounds, compositions thereof, and methods of treatment therewith” (Celgene Corporation, priority 2018, dated 2022)
